Measurements published in the NIST ThermoML archive (doi:10.1021/acs.jced.9b00064).
± gives the expanded uncertainty stated by the source.

Experiments:
[1] = Molar enthalpy of transition or fusion; details: Crystal; DSC
[2] = Crystal; DSC

- Molar enthalpy of transition or fusion [1]: 4.99 ± 0.478 kcal/mol
- Triple point temperature [2]: 355.04 ± 2.1 K
SMILES: c1ccc2ccccc2c1 [naphthalene]
